Experimental findings from PMC12633397 (bioRxiv, 2025) are described below.

This test concerns the target T1, esVHPO (Enhygromyxa salina, UniProt A0A0C2CTX7).
T1 sequence (A0A0C2CTX7 1-528): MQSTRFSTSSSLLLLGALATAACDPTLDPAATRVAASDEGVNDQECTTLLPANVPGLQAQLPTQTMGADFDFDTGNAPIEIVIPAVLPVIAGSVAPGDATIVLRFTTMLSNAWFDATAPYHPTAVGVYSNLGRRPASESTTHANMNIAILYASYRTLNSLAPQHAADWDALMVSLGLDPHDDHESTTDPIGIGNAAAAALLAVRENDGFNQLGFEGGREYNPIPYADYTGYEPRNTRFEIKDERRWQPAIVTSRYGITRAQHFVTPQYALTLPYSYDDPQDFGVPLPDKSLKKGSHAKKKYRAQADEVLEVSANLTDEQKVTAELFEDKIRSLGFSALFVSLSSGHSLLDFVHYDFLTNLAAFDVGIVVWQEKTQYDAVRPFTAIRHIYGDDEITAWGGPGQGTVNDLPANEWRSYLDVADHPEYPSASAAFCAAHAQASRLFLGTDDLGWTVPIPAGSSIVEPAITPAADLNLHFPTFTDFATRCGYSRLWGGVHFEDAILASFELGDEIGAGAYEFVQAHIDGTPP
Nature of the test: UPLC-MS of Br-MHQ formation, steady-state kinetics. Type of test: biochemical. Particulars: 1 mM H2O2, 20 mM KBr, 100 μM Na3VO4, 20 mM HEPES-KOH, 10% glycerol, 28 °C; Hill fit, positive cooperativity; labelled compound (deuterated).

Turning to `Cc1cc(=O)c2ccccc2[nH]1` [C3-deuterated MHQ], the K0.5 entry is reported as “The steady state kinetics for C3-Deuterated-MHQ (D-MHQ) was performed precisely as for undeuterated MHQ”.
